Measured values from PMC11173422, “Substitution-Induced Mechanistic Switching in SNAr-Warheads for Cysteine Proteases” (Molecules, 2024).
Read-outs that look alike come from different tables or passages of the source.

Key:
Rhodesain (TbCatL) = target: T1, Rhodesain (TbCatL) (Trypanosoma brucei rhodesiense, UniProt Q95PM0); test: Fluorimetric rhodesain inhibition assay with Z-Phe-Arg-AMC; assay type: biochemical; conditions: for Inhibition of rhodesain, in words: SAR discussion; for Mode of inhibition (time dependency, reversibility): from progress curves
T1 construct: stably transformed with the rhodesain ΔC gene cloned into the pPICZαA vector; made in house; host or cells: Pichia pastoris X-33 (pPICZαA, secreted into the culture supernatant)
Method: Inhibition of rhodesain was assessed using Z-Phe-Arg-AMC as a fluorogenic substrate. IC50 or KI^app were determined depending on the time dependency of the progress curves. Because a competitive mode of inhibition can be assumed, Ki (for reversible inhibition) and KI (for irreversible inhibition) were calculated using the Cheng–Prusoff equation [30].
Fluorimetric enzyme assays were performed as described in the literature. Information regarding buffers, concentrations, the employed substrate, as well as data analysis for linear and non-linear regression is given in the SI. In short, the cleavage of a fluorogenic substrate by the protease of interest is detected in the presence of different concentrations of inhibitors. […] For the irreversible compound with non-linear regression, the kinetic kinact value was also plotted, from which k2nd was calculated.
To investigate this influence, its inhibition of […]
nucleophilic reducing agent for enzyme activation).
Reversibility assessment for time-dependent inhibitor 9
After this incubation period, the samples
Rhodesain, CatL, CatB Assays
Continuous fluorometric measurements with a Tecan Spark 10M reader in a 96 well plate format was used to evaluate activity. Rhodesain, HsCatB and HsCatL were diluted in their respective activation buffer prior to use. Rhodesain was incubated in this for 30–60 min prior to use. The enzyme of interest (5 µL) was incubated with the inhibitor in question (10 µL), and its specific substrate (5 µL) in the respective assay buffer. The fluorescence signal was measured every 30 s for 10 min at room temperature with the corresponding excitation/emission wavelengths (λex = 380 nm / λem = 460 nm). The final concentrations and buffer compositions are depicted in SI-Table S1. Inner-filter effect corrections were performed as described in literature if deviations >5% were detected.
SI-Table S1: Information on assay conditions. [E] = final enzyme concentration, [S] = final substrate concentration in well.
For the evaluation of 9 in absence of DTT (depicted in SI-Figure S5): 5 nM final rhodesain concentration that was activated before in presence of TCEP (alternative activation buffer: 5 mM DTT → 5 mM TCEP) […]
Time-independent behavior
For inhibitors that behaved time-independently during the measurements (i.e., F-t-diagrams show constant slope), IC50 values using defined dilution series for each compound were calculated with GraphPad PRISM by fitting the remaining enzymatic activity to a four parameter IC50 equation with Y [%] as the residual enzyme activity, Ymax as the maximum value of the dose response curve at inhibitor concentrations [I] = 0 µM, Ymin as the minimum value at high inhibitor concentrations and s as the Hill […]
y [%residual activity]=௬ౣ౗౮ ି௬ౣ౟౤ೞ + y୫୧୬ eq. 1
It is assumed that the inhibitors bind competitively in respect to the substrate. Due to the dependence of the IC50 value on the substrate affinity and concentration, the Ki values were calculated with the Cheng-Prusoff equation, using the final substrate concentration [S] and the Michaelis-Menten constant KM to […]
For inhibitors that behaved time-dependently during the measurements (i.e., F-t-diagrams show reducing slopes over time), KIapp and kinact values using defined dilution series for each compound were calculated

rhodesain [1] = target: T2, rhodesain (Trypanosoma brucei rhodesiense, UniProt Q95PM0); test: MALDI-TOF-MS (sinapinic acid matrix) adduct detection; assay type: binding; parameters: stably transformed with the rhodesain ΔC gene cloned into the pPICZαA vector; made in house; host or cells: Pichia pastoris X-33 (pPICZαA, secreted into the culture supernatant); conditions: 100 µM inhibitor, 10 µM rhodesain, acidic sinapinic acid matrix
Method: Using MALDI-TOF-MS, differentiation between non-covalent and covalent ligand-target complexes is possible if acidic matrices are used that interfere with ionic and dipole interactions (i.e., suppress non-covalent interactions).
Protein mass spectrometry was performed as described before, but also described in detail in the SI. In short, rhodesain was incubated with a surplus of inhibitor under conditions similar to those of the enzyme assays described above to enable complex formation. This sample was desalted and then incorporated into a sinapinic acid matrix, which was then subjected to mass spectrometry. Data analysis was performed using mMass.
Mass spectrometric experiments were performed as described before. Lyophilized rhodesain was first […]
manufacturer’s instructions.
Then, the mixtures were left in the fume hood for cocrystallization until dry.
TOF/TOF mass spectrometer (Bruker Daltonik GmbH, Bremen, Germany). The instrument is equipped […]
cropping from 22–27 kDa was performed.
Baseline was corrected with standard settings. […]

[2] = Stability towards general substitution reactions (water, DTT); assay type: physicochemical; conditions: NH4OAc buffer pH 5.5, with or without DTT; UV spectra and LCMS
Method: 0.1 inhibitor concentration
SI-Figure S1: (A) Absorption spectra of 2, 3 and 9 with different concentrations, visualizing a potential need for mathematical correction at high concentrations for nitroanilines. ( B) Experimental proof that mathematical correction of attenuation of AMC fluorescence is only necessary for inhibitor concentrations ≥10 µM. For 2 and 3 at 10 µM attenuation of fluorescence signal is 14 and 11 %, respectively. At concentrations relevant for IC50 evaluation, no relevant interference is detected.
Stability measurements towards general substitution reactions
2, 3 and 9 (from 20 mM stock solutions in DMSO) were diluted into NH4OAc buffer (pH 5.5) to final concentrations of 100 µM, 125 µM or 1 mM and incubated in buffer alone or in presence of as much DTT as present in the fluorimetric rhodesain assay and the MALDI-TOF experiment, respectively. This was recorded with absorption spectroscopy (results depicted in SI-Figure S2) on a Tecan Spark 10M plate reader in UV-transparent 96-well plates (Greiner UV-Star®, 655801, 200 µL volume per sample) or with LCMS (see “measurement setup for LCMS” as described under the method for PAMPA; results depicted […]
system at pH 5.5 over the course of the time necessary for the employed assays. There is a small difference detectable in reactivity of 3 with 5 mM DTT: a slight but time-dependent change in UV-spectrum was found where the maximum at 265 nm decreased in intensity, indicating a small degree of degradation […]
that is not observed with lower DTT concentration or with 2 at all. The formation takes place on a much larger timescale as the time for detection in the assays (minutes vs. hours) and is therefore irrelevant to the performed evaluations. […]
repeated LCMS analysis indicates the formation of the phenol (substitution of fluoride) over the course of hours. This also seems to happen in the DMSO stock solution to a small degree after some usage (explains the presence of phenol at 0 min). Accordingly, in presence of DTT, both the phenol and the thioether are detected by MS for this compound. […]

[3] = Parallel artificial membrane permeability assay (PAMPA); conditions: pH 7.4
Method: An artificial membrane consisting of phosphatidylcholine dissolved in n-dodecane was employed to control equilibration between two connected aqueous compartments, of which one contained the compound of interest. This model for compound permeation through a cell membrane was incubated, and the resulting concentration in the acceptor compartment was quantified spectroscopically.
A general literature-known principle was used [11]. Propranolol hydrochloride was sourced from Changzou Yabang Pharmaceutical (Fagron GmbH & Co. KG). Candesartan cilexetil was sourced as a chemical reference standard from the EDQM (catalogue code Y0001388).
Incubation setup consisted of donor (top) plate (Sigma Aldrich, MAIPNTR10), 5 µL artificial membrane
(1 % (w/v) L-α-phosphatidyl choline, Sigma Aldrich P3556, in n-dodecane, Sigma Aldrich 8205430100),
transparent measurement plate (Greiner UV-Star®, 655801), Tecan Spark 10M® well plate reader, 200 µL

[4] = Aqueous solubility observed in PAMPA set-up; assay type: physicochemical; conditions: buffered aqueous solution pH 7.4, 5% DMSO
Method: acceptor (bottom) plate (Greiner, 655074). Measurement setup for direct spectroscopy consisted of UV- […]
sample volume, λ = 200–650 nm. […]
elution (0.7 mL/min). Injection volume was 100 µL. Areas of peaks in the chromatogram (detection-λ = 210 nm) were used to calculate the AUCs. Retention time and mass spectrum recorded in positive ionization mode were used to assign species. Analysis was performed using MestreNova. […]
donor plate. This was sealed (Greiner, 676070, Viewseal sealer). 400 µL of acceptor solution was applied to the acceptor plate. Incubation setup was assembled and left for 7 h. After this time, acceptor and reference solutions were analyzed.
The acceptor solutions of those were measured
P௔௣௣ = −(௏ವ ା௏ಲ )∗஺∗௧ eq. 6

rhodesain [5] = target: T2, rhodesain; conditions: 1.5 h incubation (9: 400 µM; K11777: 500 nM), diluted 1:100, n = 2; uninhibited 0.68 ± 0.05 FU/s
Method: rhodesain was reassessed in DTT-free conditions (tris(2-carboxyethyl)phosphine = TCEP used as a non-
The reactivity towards water should not be seriously
To assess reversibility of the time-dependent inhibitor [4], and to therefore discriminate between slow-
reversible and irreversible inhibition, rhodesain was incubated with compound 9 for 1.5 h, at an inhibitor
concentration of 400 µM (7.5x KI) to enable the quantita tive progression of a covale nt irreversible reaction
if one is possible. The same incubation was performed with DMSO alone as a negative control and in
presence of 500 nM K11777 as a positive irreversible control. After this incubation period, the samples
were diluted 1:100 (to 4 µM of compound 9 (0.075x KI)) into assay buffer containing substrate to record
the degree of recovery of enzymatic activity over the course of 10 min.
Raw activity of rhodesain after dilution was

T1 sequence (Q95PM0 entry or part of it): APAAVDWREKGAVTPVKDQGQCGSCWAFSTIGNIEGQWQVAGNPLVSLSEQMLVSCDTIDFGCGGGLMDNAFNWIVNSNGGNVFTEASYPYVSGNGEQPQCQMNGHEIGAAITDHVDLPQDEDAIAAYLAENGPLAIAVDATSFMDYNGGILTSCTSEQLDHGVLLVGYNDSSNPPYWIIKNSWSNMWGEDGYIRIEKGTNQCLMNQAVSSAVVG
T2 sequence (Q95PM0 entry or part of it): as above

Compound | Ki (Rhodesain (TbCatL)) [µM] | Inhibition of rhodesain, in words (Rhodesain (TbCatL)) | other results
C[C@@H](Nc1cc(F)c([N+](=O)[O-])cc1[N+](=O)[O-])C(=O)N[C@H](CCc1ccccc1)C(=O)O [Compound 15] | 22 | – | –
O=C(O)[C@@H](Cc1ccccc1)NC(=O)[C@@H](CCc1ccccc1)Nc1cc(F)c([N+](=O)[O-])cc1[N+](=O)[O-] [Compound 18] | 12 | – | –
CC(C)C[C@H](NC(=O)[C@H](Cc1ccccc1)NC(=O)c1ccc(Cl)nc1Cl)C(=O)O [Compound 8] | 30 | did not yield relevant inhibition | –
CC(C)C[C@H](NC(=O)[C@H](Cc1ccccc1)NC(=O)Nc1ccc(F)c([N+](=O)[O-])c1)C(=O)O [Compound 7] | 50 | did not produce an active inhibitor | –
CC(C)C[C@H](NC(=O)[C@H](Cc1ccccc1)Nc1ccccc1[N+](=O)[O-])C(=O)O [Compound 1] | 39 | – | –
C[C@@H](NC(=O)[C@@H](CCc1ccccc1)Nc1cc(F)c([N+](=O)[O-])cc1[N+](=O)[O-])C(=O)O [Compound 14, ((R)-2-((5-fluoro-2,4-dinitrophenyl)amino)-4-phenylbutanoyl)-D-alanine] | 27 | – | –
CC(C)C[C@H](NC(=O)[C@H](Cc1ccccc1)Nc1cc(F)ccc1[N+](=O)[O-])C(=O)O [Compound 5] | 44 | did not result in inhibition | –
CC(C)C[C@H](NC(=O)[C@H](Cc1ccccc1)Nc1cc(Cl)ncn1)C(=O)O [Compound 6] | 102 | did not produce an active inhibitor | –
CC(C)C[C@H](NC(=O)[C@H](Cc1ccccc1)NC(=O)c1cc([N+](=O)[O-])c(Cl)cc1[N+](=O)[O-])C(=O)O [Compound 12] | 25 | – | Mode of inhibition (time dependency, reversibility) (Rhodesain (TbCatL)): abolished the time-dependent mode of inhibition
CC(C)C[C@H](NC(=O)[C@H](Cc1ccccc1)Nc1ccc([N+](=O)[O-])c([N+](=O)[O-])c1)C(=O)O [Compound 2] | 0.0028 ± 0.0002 | – | Adduct with rhodesain in MALDI-TOF-MS (rhodesain [1]): no adduct was found; IC50 (Rhodesain (TbCatL)): 0.0364 ± 0.0023 µM; Mode of inhibition (time dependency, reversibility) (Rhodesain (TbCatL)): time-independent; Reactivity towards unspecific nucleophiles (water and DTT) [2]: no relevant tendency towards either side reaction
C[C@H](NC(=O)[C@H](CCc1ccccc1)Nc1cc(F)c([N+](=O)[O-])cc1[N+](=O)[O-])C(=O)O [Compound 16] | 13 | – | –
C[C@H](Nc1cc(F)c([N+](=O)[O-])cc1[N+](=O)[O-])C(=O)N[C@@H](CCc1ccccc1)C(=O)O [Compound 13] | 13 | – | –
CC(C)C[C@H](NC(=O)[C@H](Cc1ccccc1)Nc1ccc([N+](=O)[O-])cc1)C(=O)O [Compound 4] | 17 | – | –
CC(C)C[C@H](NC(=O)[C@H](Cc1ccccc1)Nc1cc(F)c([N+](=O)[O-])cc1[N+](=O)[O-])C(=O)OC(C)(C)C [Compound 21] | – | – | Papp at 7 h, 100 µM [3]: 3.4 ± 1.8 ×10⁻⁶ cm/s; aqueous solubility [4]: poor aqueous solubility
CC(C)C[C@H](NC(=O)[C@H](Cc1ccccc1)NC(=O)c1cc([N+](=O)[O-])ccc1F)C(=O)O [Compound 11] | 13 | ineffective | –
CC(C)C[C@H](NC(=O)[C@H](Cc1ccccc1)NC(=O)c1cccc([N+](=O)[O-])c1F)C(=O)O [Compound 10] | 14 | ineffective | –
O=C(O)[C@H](CCc1ccccc1)NC(=O)[C@H](Cc1ccccc1)Nc1cc(F)c([N+](=O)[O-])cc1[N+](=O)[O-] [Compound 17] | 6 | – | –
CN1CCN(C(=O)N[C@@H](Cc2ccccc2)C(=O)N[C@H](/C=C/S(=O)(=O)c2ccccc2)CCc2ccccc2)CC1 [Compound K11777, reference compound] | – | – | Adduct with rhodesain in MALDI-TOF-MS (rhodesain [1]): showed the expected mass shift representative of covalent adduct formation; Activity of rhodesain after incubation and subsequent dilution (rhodesain [5]): −0.01 ±0.00 FU/s
CC(C)C[C@H](NC(=O)[C@H](Cc1ccccc1)Nc1cc(F)c([N+](=O)[O-])cc1[N+](=O)[O-])C(=O)O [Compound 3] | 0.0019 ± 0.0001 | – | Adduct with rhodesain in MALDI-TOF-MS (rhodesain [1]): an adduct corresponding to the mass of the inhibitor was observed; IC50 (Rhodesain (TbCatL)): 0.0245 ± 0.0017 µM; Mode of inhibition (time dependency, reversibility) (Rhodesain (TbCatL)): time-independent; Reactivity towards unspecific nucleophiles (water and DTT) [2]: no relevant tendency towards either side reaction
N-(5-fluoro-2,4-dinitrobenzoyl)-L-phenylalanyl-L-leucine [Compound 9] | – | – | Adduct with rhodesain in MALDI-TOF-MS (rhodesain [1]): An adduct was also found for 9, albeit with a shift lower than the mass of the inhibitor; Activity of rhodesain after incubation and subsequent dilution (rhodesain [5]): −0.01 ±0.00 FU/s; Ki (Rhodesain (TbCatL); DTT-free conditions, TCEP for enzyme activation, read-out: KIapp): 200 µM; Ki (Rhodesain (TbCatL); KI, irreversible time-dependent inhibition, from KI^app by Cheng–Prusoff, read-out: Ki or KI): 53 µM; Mode of inhibition (time dependency, reversibility) (Rhodesain (TbCatL)): irreversible; Ki (Rhodesain (TbCatL); standard conditions with DTT, read-out: KIapp): 700 µM; Reactivity towards unspecific nucleophiles (water and DTT) [2]: relevant reactivity towards unspecific nucleophiles
